Paper PMC10102027, “Helquat dyes targeting G-quadruplexes as a new class of anti-HIV-1 inhibitors” (Scientific Reports, 2023)

Legend:
Format in all cases: cell-based
HIV-1 [1] = assay: Adsorption assay (RT activity in supernatant); conditions: 10 µM, compound and virions added to MT-4 cells simultaneously, washed out after 2 h, RT activity 5 days after infection
Method: (§1) To address virion binding and entry in a competitive setting, we performed an adsorption assay where test compounds and virions were added to MT-4 cells simultaneously and were washed out after 2 h of incubation. In parallel, we performed a replication assay where MT-4 cells were infected with HIV-1 and the tested compounds were added 1 h later. In both cases, the infection was evaluated by measuring reverse transcriptase activity in a cell-free supernatant 5 days after the infection (Fig. 3). As controls, PBS (phosphate-buffered saline) and inhibitors of different HIV-1 life-cycle steps were used: AMD (AMD3100), an inhibitor of gp120 attachment to CXCR4 receptors of the target cell, thus preventing HIV-1 adsorption and entry; AZT (azidothymidine), an inhibitor of reverse transcriptase; and RAL (raltegravir), an integrase inhibitor.
(§2) MT-4 cells were seeded in 80 µl of the Roswell Park Memorial Institute (RPMI) medium in the amount of 2 × 10^5 cells per well of a 96-well plate, and 10 µl of the virus stock were immediately added with the final multiplicity of infection (MOI) of 0.05. For a replication assay, the infected cells were incubated at 37 °C for 1 h before the addition of compounds being tested (10 µM final concentration) and subsequently cultivated at 37 °C for another 5 days. For an adsorption test, by contrast, the compounds (10 µM final concentration) were added simultaneously with the virus, and after 2 h of incubation, the cells were washed three times with PBS to remove the compounds and unbound virions; after the addition of 100 µl of the RPMI medium, the cells were cultivated at 37 °C for 5 days. Five days post-infection, aliquots of virus-containing cell-free supernatants were harvested and analysed by reverse transcriptase (RT) assay (described in the Supplementary Information). The experiments were performed as biological replicates where the sample size for each condition was n = 3.
(§3) RT assay. The reverse transcriptase (RT) activity in a cell-free supernatant was assessed by an α-32P RT assay. Briefly, the RT activity in the culture medium, which corresponded to the amount of HIV-1, was used to produce a DNA copy of an RNA template by extending a complementary oligo dT DNA primer with radiolabelled nucleotides. A reaction mixture containing 50 mM Tris-HCl pH 7.8, 75 mM KCl, 2 mM DTT, 5 mM MgCl2 and 0.5% NP-40 (all Sigma-Aldrich), 5 µg per ml of poly (rA)-poly (dT) (The Midlan Certified Reagent Company) with 1 µl 10-mCi/ml [α-32P]dTTP (American Radiolabeled Chemicals) per ml, and the tested sample was incubated at 37°C for two hours, after which 10 µl were spotted on DEAE blotting paper (PerkinElmer) and air-dried. After five washes with SSC buffer (0.15 M NaCl, 0.015 M sodium citrate) and three additional washes with 85% ethanol, the blotting paper was exposed to Phosphoscreen overnight, which was scanned on a Typhoon 9410 Phosphorimager instrument (GE Healthcare). The intensity of the dots was analysed by the ImageQuant software (GE Healthcare).

HIV-1 (NL4-3 strain) = assay: CPE-based antiviral assay in HIV-1-infected MT-4 cells (XTT); conditions: Human immunodeficiency virus 1, NL43, MT4, 120 h, cytopathic effect-based assay, MT-4 cells infected by HIV-1 (NL4-3 strain), 5 days post-infection
From the text: (§4) Based on a facile [2 + 2 + 2]‐cycloisomerization strategy, a robust three‐step synthetic entry into a novel family of helical extended diquats (helquats) was developed. After a straightforward Knoevenagel condensation of the respective helquat parent with different aldehydes (Fig. 2A), more than 500 helquat-based compounds were synthesized and screened for anti-HIV-1 activity in an assay based on the inhibition of the virus-induced cytopathic effect in MT-4 cells, evaluated after 5 days post-infection by an XTT assay. In parallel with the screening, the XTT assay was also used to determine the cytotoxicity of all compounds (Fig. 2B; for more information on the synthesis and characterization of the compounds, see the Supplementary Information). […]
(§5) XTT screening. MT-4 cells were seeded in 80 µl of the RPMI without Phenol Red in the amount of 3x10^4 cells per well of a 96-well plate. 10 µl of tested compounds (500 µM at 5% DMSO) or controls (5% DMSO at PBS, AZT 1mM, SQV 100 µM) were added to the cells; after one-hour incubation at 37 °C, HIV-1 (NL4-3 strain) was added with MOI = 0.05 and the infected cells were cultivated for five days.
The viability of the cells was measured by the XTT cell viability and proliferation assay. Briefly, 50 µl of the XTT solution with the addition of PMS (both VWR) was added to the cultivation media and incubated in a humidified incubator maintained at 37 °C with 5% CO2 for four hours, after which absorbance at 560 nm was measured on a VICTOR plate reader (PerkinElmer). […]
(§6) For compounds selected as hits in the initial screening, the effective concentration that inhibits 50% of the viral activity (EC50) and the cytotoxic concentration that reduces the MT -4 cell viability by 50% (CC50) were determined. Viral activity was evaluated after five days as an HIV-1-induced cytopathic effect quantified by the XTT assay. Selected hits were tested at two-fold serial dilutions from 50 µM concentration, and the drug concentrations required to reduce the viral cytopathic effect by 50% (EC 50) as well as the drug concentrations that reduced MT-4 cell viability by 50% (CC50) were calculated by nonlinear regression using GraphPad Prism v.8.0.0 (GraphPad Software).

in vitro = conditions: human
From the text: as §4, §5
The viability of the cells was measured by the XTT cell viability and proliferation assay. Briefly, 50 µl of the XTT solution with the addition of PMS (both VWR) was added to the cultivation media and incubated in a humidified incubator maintained at 37 °C with 5% CO2 for four hours, after which absorbance at 560 nm was measured on a VICTOR plate reader (PerkinElmer).
The cytotoxicity of the tested compounds was evaluated separately without virus addition and analysed by the same assay.
as §6

HIV-1 [2] = assay: Replication assay (RT activity in supernatant); conditions: 10 µM, compound added 1 h after infection of MT-4 cells, RT activity 5 days after infection
Method: as §1, §2, §3

In the case of CN1/C(=C/c2cc3[n+](c4ccccc24)CCCc2ccc4c(c2-3)-c2cccc[n+]2CCC4)Sc2ccccc21 [Compound 2], the “effect on virus adsorption” value (HIV-1 [1]) is reported as “inhibited adsorption”, the EC50 (HIV-1 (NL4-3 strain)) is reported as < 1 µM and the CC50 at 5 days (in vitro) is reported as 24.4 µM.

In the case of Cc1c(C)c2c(c3c1CC[n+]1ccc(/C=C/c4c[nH]c5ccccc45)cc1-3)-c1cc(/C=C/c3c[nH]c4ccccc34)cc[n+]1CC2 [Compound 18], the “effect on viral replication” value (HIV-1 [2]) is reported as “inhibited neither adsorption nor replication, or their effect was weak”, the “effect on virus adsorption” value (HIV-1 [1]) is reported as “inhibited neither adsorption nor replication, or their effect was weak” and the EC50 (HIV-1 (NL4-3 strain)) is reported as 3.18 µM. For the same compound, the CC50 at 5 days (in vitro) was > 50 µM.

With Cc1c(C)c2c(c3c1CC[n+]1ccc(/C=C/c4c5ccccc5c(C)c5ccccc45)cc1-3)-c1cc(/C=C/c3c4ccccc4c(C)c4ccccc34)cc[n+]1CC2 [Compound 1] the “effect on viral replication” value (HIV-1 [2]) was “inhibited neither adsorption nor replication, or their effect was weak”, the “effect on virus adsorption” value (HIV-1 [1]) was “inhibited neither adsorption nor replication, or their effect was weak” and the EC50 (HIV-1 (NL4-3 strain)) was < 1 µM. For the same compound, the CC50 at 5 days (in vitro) was > 50 µM.

With Cc1c(C)c2c(c3c1CC[n+]1ccc(/C=C/c4c[nH]c5ccc(Br)cc45)cc1-3)-c1cc(/C=C/c3c[nH]c4ccc(Br)cc34)cc[n+]1CC2 [Compound 17] the “effect on viral replication” value (HIV-1 [2]) was “inhibited neither adsorption nor replication, or their effect was weak”, the “effect on virus adsorption” value (HIV-1 [1]) was “inhibited neither adsorption nor replication, or their effect was weak” and the EC50 (HIV-1 (NL4-3 strain)) was 3.01 µM. The CC50 at 5 days (in vitro) was > 50 µM.

With Cc1c(C)c2c(c3c1CC[n+]1ccc(/C=C/c4ccc(-c5ccccc5)s4)cc1-3)-c1cc(/C=C/c3ccc(-c4ccccc4)s3)cc[n+]1CC2 [Compound 11] the “effect on virus adsorption” value (HIV-1 [1]) was “inhibited adsorption”, the EC50 (HIV-1 (NL4-3 strain)) was 2.64 µM and the CC50 at 5 days (in vitro) was > 50 µM.

In the case of Cc1c(C)c2c(c3c1CC[n+]1ccc(/C=C/c4ccc5c(c4)CCO5)cc1-3)-c1cc(/C=C/c3ccc4c(c3)CCO4)cc[n+]1CC2 [Compound 5], the “effect on viral replication” value (HIV-1 [2]) is reported as “inhibited neither adsorption nor replication, or their effect was weak”, the “effect on virus adsorption” value (HIV-1 [1]) is reported as “inhibited neither adsorption nor replication, or their effect was weak” and the EC50 (HIV-1 (NL4-3 strain)) is reported as 1.67 µM. For the same compound, the CC50 at 5 days (in vitro) was > 50 µM.

In the case of COc1ccc(/C=C/c2cc[n+]3c(c2)-c2c(c(C)c(C)c4c2-c2cc(/C=C/c5ccc(OC)cc5OC)cc[n+]2CC4)CC3)c(OC)c1 [Compound 13], the “effect on viral replication” value (HIV-1 [2]) is reported as “inhibited neither adsorption nor replication, or their effect was weak”, the “effect on virus adsorption” value (HIV-1 [1]) is reported as “inhibited neither adsorption nor replication, or their effect was weak” and the EC50 (HIV-1 (NL4-3 strain)) is reported as 2.69 µM. For the same compound, the CC50 at 5 days (in vitro) was > 50 µM.

With C(=C\c1cc2ccccc2[nH]1)/c1cc[n+]2c(c1)-c1c(ccc3c1-c1cccc[n+]1CCC3)CCC2 [Compound 7] the “effect on viral replication” value (HIV-1 [2]) was “significantly impairing viral replication”, the “effect on virus adsorption” value (HIV-1 [1]) was “minimal or no effect on virus adsorption” and the EC50 (HIV-1 (NL4-3 strain)) was 1.79 µM. For the same compound, the CC50 at 5 days (in vitro) was > 50 µM.

In the case of Cc1c(C)c2c(c3c1CC[n+]1ccc(/C=C/c4ccc(N(C)C)cc4)cc1-3)-c1cc(/C=C/c3ccc(N(C)C)cc3)cc[n+]1CC2 [Compound 8], the “effect on virus adsorption” value (HIV-1 [1]) is reported as “inhibited adsorption”, the EC50 (HIV-1 (NL4-3 strain)) is reported as 1.79 µM and the CC50 at 5 days (in vitro) is reported as > 50 µM.

For C(=C\c1cccc2[n+]1CCc1ccc3c(c1-2)-c1cccc(/C=C/c2ccc(C(=C(c4ccccc4)c4ccccc4)c4ccccc4)cc2)[n+]1CC3)/c1ccc(C(=C(c2ccccc2)c2ccccc2)c2ccccc2)cc1 [Compound 4], the “effect on virus adsorption” value (HIV-1 [1]) was “inhibited adsorption”, the EC50 (HIV-1 (NL4-3 strain)) was 1.51 µM and the CC50 at 5 days (in vitro) was > 50 µM.

With Cn1c(/C=C/c2cccc3[n+]2CCc2ccc4c(c2-3)-c2cccc(/C=C/c3cc5ccccc5n3C)[n+]2CC4)cc2ccccc21 [Compound 9] the “effect on virus adsorption” value (HIV-1 [1]) was “inhibited adsorption”, the EC50 (HIV-1 (NL4-3 strain)) was 1.96 µM and the CC50 at 5 days (in vitro) was > 50 µM.

In the case of CN1/C(=C/c2cccc3[n+]2CCCc2ccc4c(c2-3)-c2cccc(/C=C3\Sc5ccccc5N3C)[n+]2CCC4)Sc2ccccc21 [Compound 10], the “effect on viral replication” value (HIV-1 [2]) is reported as “inhibited neither adsorption nor replication, or their effect was weak”, the “effect on virus adsorption” value (HIV-1 [1]) is reported as “inhibited neither adsorption nor replication, or their effect was weak” and the EC50 (HIV-1 (NL4-3 strain)) is reported as 2.18 µM. For the same compound, the CC50 at 5 days (in vitro) was > 50 µM.

For COc1ccc(/C=C/c2cc[n+]3c(c2)-c2c(c(C)c(C)c4c2-c2cc(/C=C/c5ccc(OC)c6ccccc56)cc[n+]2CC4)CC3)c2ccccc12 [Compound 19], the “effect on viral replication” value (HIV-1 [2]) was “inhibited neither adsorption nor replication, or their effect was weak”, the “effect on virus adsorption” value (HIV-1 [1]) was “inhibited neither adsorption nor replication, or their effect was weak” and the EC50 (HIV-1 (NL4-3 strain)) was 3.39 µM. The CC50 at 5 days (in vitro) was > 50 µM.
